Measured values from patent US12594280B2, “Antiviral compositions for treating the flu” (UNIVERSITE CLAUDE BERNARD LYON 1, priority 2015, dated 2026).
Read-outs that look alike come from different tables or passages of the source.

Legend:
[1] = system: H1N1 pdm09 virus (A/Pdm/09); format: cell-based, human influenza A virus
H1N1 pdm09 virus [2] = format: cell-based, human influenza A virus
[3] = in vivo evaluation in mice of toxicity (change in weight); settings: gavage; oseltamivir 10 mg/kg/day, etilefrine 3 mg/kg/day, diltiazem 90 mg/kg/day
Description: FIG. 4. In vivo evaluation of the toxicity of the following molecules: oseltamivir, monensin, diltiazem, etilefrine and isoxicam. The “Saline” control indicates the weight of mice treated with PBS. The curve represents the change in weight (weight gain/loss expressed as a percentage) of the various groups of mice over time.
The “Saline” control denotes untreated mice, having been treated with PBS.
The following daily amounts were administered by gavage to the mice: • oseltamivir: 10 mg/kg/day • etilefrine: 3 mg/kg/day • diltiazem: 90 mg/kg/day

H1N1 pdm09 virus [4] = assay: in vivo antiviral effect, treatment started before H1N1 infection of mice; settings: B57BL/6 mice, gavage on Day-1, day of and 3 days following infection
Description: B57BL/6 mice (age 7-8 weeks) are treated by gavage before (Day-1), the day of, and 3 days following infection with H1N1 pdm09 virus, according to the protocol shown diagrammatically in FIG. 5A.
The following parameters are evaluated over time: • FIG. 5B: Survival rate over time, up to 14 days post-infection; • FIG. 5C: Weight loss and gain observed over time; • FIG. 5D: Viral titer in the lungs of infected and treated mice.

H1N1 pdm09 virus [5] = assay: in vivo antiviral effect, treatment 24 hours after H1N1 infection of mice; settings: B57BL/6 mice, gavage, treatment 24 hours after infection, up to 14 days post-infection
Description: B57BL/6 mice (age 7-8 weeks) are treated by gavage after infection with H1N1 pdm09 virus, according to the protocol shown diagrammatically in FIG. 6A. Survival rate over time is measured for infected mice receiving no treatment (FIG. 6B); treated with oseltamivir (FIG. 6C); and treated with diltiazem (FIG. 6D). The survival rate of mice treated with oseltamivir, and of those treated with diltiazem, is 100%.

influenza H1N1 pdm09 = format: cell-based, influenza virus
[6] = system: A/Moscow/10/99 (H3N2) strain; format: cell-based, human influenza A virus; settings: A549 cells, FIG. 2
H1N1 pdm09 = format: cell-based, human influenza A virus

## NC(=O)c1ncn([C@@H]2O[C@H](CO)[C@@H](O)[C@H]2O)n1 [ribavirin]
[1]
  normalized virus production: significant decrease

## CC[C@@]1([C@@H]2O[C@@H]([C@H]3O[C@@](O)(CO)[C@H](C)C[C@@H]3C)C[C@@H]2C)CC[C@H]([C@]2(C)CC[C@]3(C[C@H](O)[C@@H](C)[C@@H]([C@@H](C)[C@@H](OC)[C@H](C)C(=O)O)O3)O2)O1 [monensin]
[1]
  normalized virus production: significant decrease
H1N1 pdm09 virus [2]
  decrease of virus production relative to the control value: about 72%

## COc1ccc([C@@H]2Sc3ccccc3N(CCN(C)C)C(=O)[C@@H]2OC(C)=O)cc1 [diltiazem]
[1]
  normalized virus production: significant decrease
[1]; diltiazem alone at 9 nM, FIG. 3B
  virus production, comparison of the conditions: best results
[3]
  toxicity (change in weight of the mice): clearly nontoxic
H1N1 pdm09 virus [4]
  survival at 14 days: 90%
H1N1 pdm09 virus [5]
  survival rate: 100%
H1N1 pdm09 virus [2]
  decrease of relative viral titer / virus production relative to the control value: about 20%
Influenza H1N1 pdm09; diltiazem 9 μM
  antiviral effect on virus production: no significant antiviral affect
Influenza H1N1 pdm09; diltiazem 90 μM, compared with oseltamivir 1 μM
  antiviral effect on virus production: comparable antiviral effect

## CCNCC(O)c1cccc(O)c1 (stereo not drawn) [etilefrine]
[1]
  normalized virus production: significant decrease
[6]
  antiviral effects: significant from the lowest concentration tested
  concentration that completely inhibits virus production: 0.018 µM
[3]
  toxicity (change in weight of the mice): clearly nontoxic
H1N1 pdm09 virus [4]
  survival at 14 days: 70%

## CCOC(=O)C1=C[C@@H](OC(CC)CC)[C@H](NC(C)=O)[C@@H](N)C1 [oseltamivir]
[1]; oseltamivir alone, FIGS. 3A and 3B
  virus production decreased to: about 40%
[3]
  toxicity (change in weight of the mice): highest cell toxicity
H1N1 pdm09 virus [4]
  survival at 14 days: 60%
H1N1 pdm09 virus [5]
  survival rate: 100%
H1N1 pdm09 virus [2]
  virus production decreased to a value relative to the control value: about 55%
Influenza H1N1 pdm09
  decrease of virus production relative to the control value: up to 3 log 10
Influenza H1N1 pdm09; oseltamivir 0.1 μM
  antiviral effect on virus production: no significant antiviral affect
H1N1 pdm09; Fa = 0.90 (90%)
  Dose Oseltamivir: 7.50797 µM
H1N1 pdm09; Fa = 0.95 (95%)
  Dose Oseltamivir: 62.435 µM
H1N1 pdm09; Fa = 0.97 (97%)
  Dose Oseltamivir: 281.813 µM

## CC(=O)O[C@H]1C[C@H](O[C@H]2[C@@H](O)C[C@H](O[C@H]3[C@@H](O)C[C@H](O[C@H]4CC[C@@]5(C)[C@H](CC[C@@H]6[C@@H]5C[C@@H](O)[C@]5(C)[C@@H](C7=CC(=O)OC7)CC[C@]65O)C4)O[C@@H]3C)O[C@@H]2C)O[C@H](C)[C@H]1O[C@@H]1O[C@H](CO)[C@@H](O)[C@H](O)[C@H]1O [lanatoside C]
[1]
  normalized virus production: did not make it possible to confirm the antiviral activity
